From patent USRE37781E1, “Substituted cyclic carbonyls and derivatives thereof useful as retroviral protease inhibitors” (DuPont Pharmaceuticals Company, priority 1991, dated 2002)
Where two headings read alike, the source gives them in different places.

Columns and labels:
[1] = molecular target: single-chain tethered dimer of HIV protease (Human immunodeficiency virus 1, UniProt P04585); test: biochemical; format: biochemical; set-up: fused on or other part: A second copy of the same protease unit is joined to the first by a short peptide tether, giving one polypeptide
Method: HIV Protease Inhibition Assay—HPLC Method
Active protease was prepared as described therein by extraction with 67% acetic acid, dilution 33-fold with water, dialysis against water and then against a “refolding buffer” consisting of 20 mM MES, 1 mM dithiothreitol and 10% glycerol. Protease was stored as a stock preparation at 10 uM in refolding buffer.
Substrate: Peptide of sequence: aminobenzoyl-Ala-Thr-His-Gln-Val-Tyr-Phe(NO2)-Val-Arg-Lys-Ala containing p-nitrophenylalanine, was prepared by solid phase synthesis as previously described Cheng et al., op.cit. Stock solutions of 2 mM substrate were prepared in DMSO.
Inhibitory compounds were dissolved in sufficient DMSO to make 3 mM stock solutions. All further dilutions were prepared in “assay buffer”: 1M NaCl, 50 mM MES, pH 5.5, 1 mM EDTA, 1 mM DTT, […] glycerol.
Enzyme reaction: In a 2 ml screw-cap centrifuge tube were added 50 ul protease (final concentration 0.25 nM) and 0.1 ml inhibitory compound (final concentration […]). After 15 min preincubation at room temperature, the reaction was started with the addition of 0.05 ml substrate (final concentration 5 uM). Incubation was carried out at 30 C. for 1 hr. The reaction was stopped with 1 ml 0.1M ammonium hydroxide.
HPLC measurement of product formation: The product (aminobenzoyl-Ala-Thr-His-Gln-Val-Tyr) was separated from substrate on a Pharmacia MonoQ anion exchange column. The injection volume was 0.2 ml. The mobile phases were: A (20 mM trisHCl, pH 9.0, 0.02% sodium Azide, 10% acetonitrile), B (20 mM tris HCl, pH 9.0, 0.02% sodium azide, 0.5M ammonium formate, 10% acetonitrile). The mobile phases were pumped at 1 ml/min, with a gradient from 0 to 30% B in 5 min, 100% B for 4 min to wash the column, and a re-equilibration for 4 min. The retention time of the product was 3.6 min. Detection with a Shimadzu model RF535 fluorescence monitor was at 330 nm (excitation) and 430 (emission).

HIV-1 (RF) in MT-2 cells = test: microbe, parasite or virus in culture; format: cell-based; conditions: Table 2d, class symbols
Method: DNA Plasmids and in vitro RNA transcripts:
Plasmid pDAB 72 containing both gag and pol sequences of BH10 (bp 113-1816) cloned into PTZ 19R was prepared according to Erickson-Viitanen et al. AIDS Research and Human Retroviruses 1989, 5, 577. The plasmid was linearized with Bam HI prior to the generation of in vitro RNA transcripts using the Riboprobe Gemini system II kit (Promega) with T7 RNA polymerase. Synthesized RNA was purified by treatment with RNase free DNAse (Promega), phenol-chloroform extraction, and ethanol precipitation. RNA transcripts were dissolved in water, and stored at −70° C. The concentration of RNA was determined from the A260.
Biotinylated capture probes were purified by HPLC after synthesis on an Applied Biosystems (Foster City, Calif.) DNA synthesizer by addition of biotin to the 5′ terminal end of the oligonucleotide, using the biotin-phosphoramidite reagent of Cocuzza, Tet. Lett. 1989, 30, 6287. The gag biotinylated capture probe (5-biotin-[…] 3′) was complementary to nucleotides 889-912 of HXB2 and the pol biotinylated capture probe (5′-biotin-[…] 3′) was complementary to nucleotides 2374-2395 of HXB2. Alkaline phosphatase conjugated oligonucleotides used as reporter probes were prepared by Syngene (San Diego, Calif.). The pol reporter probe (5′ […] 3′) was complementary to nucleotides 2403-2425 of HXB2. The gag reporter probe (5′ […] 3′) was complementary to nucleotides 950-973 of HXB2. All nucleotide positions are those of the GenBank Genetic Sequence Data Bank as accessed through the Genetics Computer Group Sequence Analysis Software Package (Devereau Nucleic Acids Research 1984, 12, 387). The reporter probes were prepared as 0.5μM stocks in 2× SSC (0.3M NaCl, 0.03M sodium citrate), 0.05M Tris pH 8.8, 1 mg/mL BSA. The biotinylated capture probes were prepared as 10 μM stocks in water.
Streptavidin coated plates:
Nunc-immunomodule microtiter plate strips were coated by addition of 200 μL of streptavidin (30 ug/mL, Scripps, La Jolla, Calif.) in freshly prepared 10 mM sodium carbonate (pH 9.6). Plates were incubated overnight at 4° C. Streptavidin solution was aspirated from the wells and a blocking buffer composed of phosphate buffered saline (PBS), 20 mg/mL bovine serum albumin (crystalline, nuclease and protease free, Calbiochem) and 100 mg/mL lactose (Sigma) was added to the plates for 3 hrs at room temperature. Blocking buffer was removed from the wells, which were allowed to dry overnight at room temperature and subsequently stored at 4° C. in zip lock bags with desiccant. For the majority of the compound evaluation experiments, streptavidin coated plates were obtained from Du Pont Biotechnology Systems (Boston, Mass.).
MT-2, CEM, and H9 cells were maintained in RPMI 1640 supplemented with 5% fetal calf serum (FCS), 2 mM L-glutamine and 50 μg/mL gentamycin, all from Gibco. Laboratory strains of HIV-1 (RF, MN and IIIB) were propagated in H9 cells in the same medium. Virus stocks were prepared approximately 1 month after acute infection of H9 cells by clarification of the tissue culture medium and storage of aliquots at −70° C. […] Each aliquot of virus stock used for infection was thawed only once. In some cases, infected H9 cells were shifted to Dulbecco's modified Eagle's medium 3-10 days before collection of virus in order to generate virus stocks in medium with low biotin content. Clinical isolates of HIV that had been passaged once in MT-2 cells were used to infect fresh MT-2 cells in RPMI medium. Three days after infection, cells were pelleted, resuspended and culture continued in Dulbecco's modified Eagle's medium as above. Virus stocks of clinical isolates were prepaid 10-15 days after infection when cytopathic effects were apparent in the culture.

[2] = Table 2d, class symbols, read-out: HPLC K1
[3] = read-out: HPLC Ki, Table 1d, lower part
[4] = Table 2d, HIV protease inhibition, HPLC method, read-out: HPLC K1

With `CN(C)C(=O)c1cccc(CN2C(=O)N(Cc3cccc(C(=O)N(C)C)c3)C(Cc3ccccc3)C(O)C(O)C2Cc2ccccc2)c1` (stereo not shown) [11S] the Ki [1, 2] was 10 to 1000 nM and the IC90 (HIV-1 (RF) in MT-2 cells) was “+++ (+++=<10 μg/mL)”.

With `CC(O)c1cccc(CN2C(=O)N(Cc3cccc(Br)c3)C(Cc3ccccc3)C(O)C(O)C2Cc2ccccc2)c1` (stereo not shown) [Example 9R] the Ki ([1]; read-out: HPLC K1, Table 2d, class symbols) was 10 to 1000 nM and the IC90 (HIV-1 (RF) in MT-2 cells; Human immunodeficiency virus 1, MT2, 48 h, read-out: IC90) was less than 10 µg/mL.

Work on `CSCCC1C(O)C(O)C(CCSC)N(CC2CC2)C(=O)N1CC1CC1` (stereo not shown) [Example 16AB] yielded a Ki ([1]; Table 2e, read-out: K4 HPLC) greater than 1000 nM.

`O=C1N(Cc2coc(CO)c2)C(Cc2ccccc2)C(O)C(O)C(Cc2ccccc2)N1Cc1coc(CO)c1` (stereo not shown) [Example 15FP] gave a Ki ([1]; HIV protease inhibition, HPLC method, Table 2d, read-out: HPLC K1) of less than 10 nM.

In the case of `O=C1NC(Cc2ccccc2)C(O)C(O)C(Cc2ccccc2)N1CC1CC1CCO` (stereo not shown) [Example 12Z], the Ki [1, 2] is reported as 10 to 1000 nM.

`O=C1N(CC2CC2)C(Cc2ccccc2)C(O)C(OCc2ccccc2)C(Cc2ccccc2)N1CC1CC1` (stereo not shown) [Example 7AH] was tested, and the Ki [1, 3] was greater than 1000 nM.

In the case of `C=CCCC1C(O)C(O)C(CCC=C)N(Cc2ccccc2)C(=O)N1Cc1ccccc1` (stereo not shown) [Example 16AK], the Ki ([1]; Table 2e, read-out: K4 HPLC) is reported as greater than 1000 nM.

For `O=C1N(CC2CC2)C(Cc2ccc(F)cc2)C(O)C(O)C(Cc2ccc(F)cc2)N1CC1CC1` (stereo not shown) [20H], the Ki ([1]; read-out: HPLC Ki, Table 2i) was less than 10 nM.

Compound `CON=C1C(O)C(Cc2ccccc2)N(CC2CC2)C(=O)N(CC2CC2)C1Cc1ccccc1` (stereo not shown) [Example 7AC] has a Ki [1, 3] of 10 to 1000 nM.

In the case of `O=C1N(CC2CC2)C(Cc2ccc3ccccc3c2)C(O)C(O)C(Cc2ccc3ccccc3c2)N1CC1CC1` (stereo not shown) [16L], the Ki ([1]; Table 2e, read-out: K4 HPLC) is reported as less than 10 nM.

For `CN1CCN(CCCN2C(=O)NC(Cc3ccccc3)C(O)C(O)C2Cc2ccccc2)CC1` (stereo not shown) [15AP], the Ki [1, 4] was greater than 1000 nM.

With `O=C1N(Cc2cccc(-c3nc4ccccc4[nH]3)c2)C(Cc2ccccc2)C(O)C(O)C(Cc2ccccc2)N1Cc1cccc(-c2nc3ccccc3[nH]2)c1` (stereo not shown) [15AX] the Ki [1, 4] was 10 to 1000 nM.

Compound `C=CCN1C(=O)N(CC=C)C(CCCCCC)C(O)C(O)C1CCCCCC` (stereo not shown) [Example 16AQ] has a Ki ([1]; Table 2e, read-out: K4 HPLC) greater than 1000 nM.

For `C=CCCC1C(O)C(O)C(CCC=C)N(CC=C)C(=O)N1CC=C` (stereo not shown) [Example 16AS], the Ki ([1]; Table 2e, read-out: K4 HPLC) was greater than 1000 nM.

In the case of `CC(C)CC1C(O)C(O)C(CC(C)C)N(Cc2ccccc2)C(=O)N1Cc1ccccc1` (stereo not shown) [Example 16Z], the Ki ([1]; Table 2e, read-out: K4 HPLC) is reported as 10 to 1000 nM.

`CCCCC1C(O)C(O)C(CCCC)N(Cc2ccc(CO)cc2)C(=O)N1Cc1ccc(CO)cc1` (stereo not shown) [Example 16AT] was tested, and the Ki ([1]; Table 2e, read-out: K4 HPLC) was 10 to 1000 nM.

`Nc1ncc(-c2cccc(CN3C(=O)N(Cc4cccc(-c5ccnc(N)n5)c4)C(Cc4ccccc4)C(O)C(O)C3Cc3ccccc3)c2)cn1` (stereo not shown) [15BB] gave a Ki [1, 4] of 10 to 1000 nM.
